Entries after “also recorded” stand apart in the source; their conditions may differ.
Tests used:
Assay type in all cases: cell-based, mouse
CFTR in PN cells = assay: CFTR expression and biotinylation; conditions: 10 μM, 16 h, vs control PN cells
Description: FIG. 19A, FIG. 19B, FIG. 19C, and FIG. 19D show CFTR expression in PN cells treated with VX-809 (10 μM) for 16 h.
The expression of CFTR was evaluated in PN cells treated with VX-809 and control PN cells. PN cells were treated with 10 μM VX-809 for 16 h or a control.

[1] = test system: caspase 3 activity in PN cells; assay: EnzChek Caspase-3 assay (apoptosis); conditions: 16 h
Description: Apoptosis was measured using the EnzChek Caspase-3 Assay Kit (Invitrogen #E13184). Cells were treated either with VX-809 or with DMSO at indicated concentrations for 16 h or left untreated (control). Both treated and control cells were then harvested, lysed, and assayed as described in the manufacturer's protocol. Reactions were carried out at room temperature, and fluorescence was measured in a fluorescence microplate reader (SpectraMax M3), with excitation at 496 nm and emission detection at 520 nm. Background fluorescence, determined for a no-enzyme control, has been subtracted from each value. Ac-DEVD-CHO was used as an inhibitor control (Inh-cntr1) to confirm the correlation between signal detection and caspase3-like protease activity. Data were analyzed using one-way and ANOVA multiple comparisons. n=4-5. ****P<0.0001;
Apoptosis is associated with the absence of PC1 in ADPKD. To assess whether apoptosis is directly altered by VX-809, caspase 3 activity was monitored in PN cells.

PN (pkd1-null) cells = assay: In vitro cystogenesis (3D Matrigel culture, cyst size by cross-sectional area)
Description: Cells were treated with DMSO (control), VX-809, or C18 (10 μM) plus or minus forskolin on Days 0, 2, 4, 6, 8, 10, 12, 14. […] Cells were treated with DMSO (control), C18 or VX-809 (10 μM) from 9-16 (7) days. All pictures were taken on Day 16. Columns represent means±SEM (n=6). The average cyst size from the control group was considered 100%, and the sizes of the rest of the cysts were compared with this average. ****P<0.0001. Cyst size was estimated from the cross-sectional area;
VX-809 Reduces Cyst Growth in Vitro Experiments were conducted using a model ADPKD cell line (PH=pkd1+/− heterozygote control; PN=pkd−/− knockout), clonally isolated from single parental clones obtained from a pkdf1/− mouse that was manufactured in an ImmortoMouse containing the H-2Kb-tsA58 gene. The null cells (PN) stably express the Cre recombinase. All the cells proximal tubule origin. To determine how VX-809 reduces cyst growth, cysts were grown in the presence of forskolin (FIG. 2). […] Taken together with the animal data provided in FIG. 1, these in vitro results clearly indicate that CFTR correctors are effective in reducing cyst growth.
In vitro cytogenesis. To induce differentiation, cells were kept at 37° C. for at least 6 days without gamma-interferon. After one week, the cells were used for 3D culture or other experiments. Growth factor-reduced Matrigel #354230 (Corning) was used, and cell dilutions were prepared so that there were approximately 6,000 cells in 25 μl of medium; 25 μl of cell preparation was mixed with 50 μl of Matrigel. Pictures were taken with a Zeiss Axio microscope. Cystic areas were analyzed with ImageJ (provided by the NIH).

Cc1ccc(NC(=O)C2(c3ccc4c(c3)OC(F)(F)O4)CC2)nc1-c1cccc(C(=O)O)c1 [VX-809, lumacaftor]
CFTR expression (CFTR in PN cells): enhanced | biotinylation of CFTR (CFTR in PN cells): significantly increased | caspase 3 activity [1]: small reduction | size of established cysts (PN (pkd1-null) cells; 10 μM from Days 9-16, in the presence of forskolin): reduces the size of established cysts | cyst growth (PN (pkd1-null) cells; 10 μM on Days 0, 2, 4, 6, 8, 10, 12, 14, plus or minus forskolin): reduce cyst growth equally well; also recorded: inhibits cyst growth | cyst size (PN (pkd1-null) cells; every other day or Days 9-16, in the presence of forskolin): dramatically reducing cyst size
